Species: Rattus norvegicus
Assay: DrugMatrix - Regimen: Daily Repeat
Type: toxicity, organism-based, Sprague-Dawley
Set-up: regimen Daily Repeat, gender Male, age 6-8 weeks
Settings: in vivo, po, 0 mg/kg, route oral GAVAGE, dose level Control, […]; for ABSOLUTE BASOPHIL / ABSOLUTE EOSINOPHIL / ABSOLUTE LYMPHOCYTE / ABSOLUTE MONOCYTE / BASOPHIL / EOSINOPHIL / ERYTHROCYTE COUNT / HEMATOCRIT / HEMOGLOBIN / LEUKOCYTE COUNT / LYMPHOCYTE / MEAN CORPUSCULAR HEMOGLOBIN / MEAN CORPUSCULAR HEMOGLOBIN CONCENTRATION / MEAN CORPUSCULAR VOLUME / MONOCYTE / NEUTROPHIL / PLATELET COUNT: tissue Blood
[1] = 72 h, tissue Plasma, time 3 day
[2] = 120 h, tissue Plasma, time 5 day

`Clc1ccc(Cl)cc1` [1,4-DICHLOROBENZENE] gave an ABSOLUTE BASOPHIL (72 h, time 3 day) of 50 cells/µL, an ABSOLUTE EOSINOPHIL (72 h, time 3 day) of 43.3 cells/µL and an ABSOLUTE LYMPHOCYTE (72 h, time 3 day) of 9670 cells/µL. It also gave an ABSOLUTE MONOCYTE (72 h, time 3 day) of 210 cells/µL, a BASOPHIL (72 h, time 3 day) of 0.4% and an EOSINOPHIL (72 h, time 3 day) of 0.37%. For the same compound, the “ERYTHROCYTE COUNT” value (72 h, time 3 day) was 6.82 x10E6/uL, the HEMATOCRIT (72 h, time 3 day) was 46.77% and the HEMOGLOBIN (72 h, time 3 day) was 14.53 G/DL. The “LEUKOCYTE COUNT” value (72 h, time 3 day) was 11.77 x10E3/uL, the LYMPHOCYTE (72 h, time 3 day) was 82.1% and the “MEAN CORPUSCULAR HEMOGLOBIN” value (72 h, time 3 day) was 21.33 pg. The “MEAN CORPUSCULAR HEMOGLOBIN CONCENTRATION” value (72 h, time 3 day) was 31.13 G/DL, the “MEAN CORPUSCULAR VOLUME” value (72 h, time 3 day) was 68.57 fL and the MONOCYTE (72 h, time 3 day) was 1.8%. For the same compound, the NEUTROPHIL (72 h, time 3 day) was 14.83%, the “PLATELET COUNT” value (72 h, time 3 day) was 1303.33 x10E3/uL and the “ALANINE AMINOTRANSFERASE” value [1] was 46.67 u/L. The ALBUMIN [1] was 4.17 G/DL, the “ALKALINE PHOSPHATASE” value [1] was 530 u/L and the “ASPARTATE AMINOTRANSFERASE” value [1] was 81.33 u/L. For the same compound, the “BLOOD UREA NITROGEN” value [1] was 17.67 mg/dL, the “CARBON DIOXIDE” value [1] was 41.67 mmol/L and the CHLORIDE [1] was 102 MEQ/L. For the same compound, the CHOLESTEROL [1] was 70.33 mg/dL, the “CREATINE PHOSPHOKINASE” value [1] was 372.67 u/L and the CREATININE [1] was 0.5 mg/dL. For the same compound, the GLUCOSE [1] was 184 mg/dL, the LIPASE [1] was 13.33 u/L and the PHOSPHORUS [1] was 10.2 mg/dL. For the same compound, the POTASSIUM [1] was 6.13 MEQ/L, the SODIUM [1] was 145 MEQ/L and the “TOTAL BILIRUBIN” value [1] was 0.43 mg/dL. The “TOTAL PROTEIN” value [1] was 6.7 G/DL, the “URIC ACID” value [1] was 0.83 mg/dL and the ABSOLUTE BASOPHIL (120 h, time 5 day) was 33.3 cells/µL. It also gave an ABSOLUTE EOSINOPHIL (120 h, time 5 day) of 56.7 cells/µL, an ABSOLUTE LYMPHOCYTE (120 h, time 5 day) of 9220 cells/µL and an ABSOLUTE MONOCYTE (120 h, time 5 day) of 230 cells/µL. The BASOPHIL (120 h, time 5 day) was 0.3%, the EOSINOPHIL (120 h, time 5 day) was 0.5% and the “ERYTHROCYTE COUNT” value (120 h, time 5 day) was 6.62 x10E6/uL. The HEMATOCRIT (120 h, time 5 day) was 46.43%, the HEMOGLOBIN (120 h, time 5 day) was 14.3 G/DL and the “LEUKOCYTE COUNT” value (120 h, time 5 day) was 10.96 x10E3/uL. For the same compound, the LYMPHOCYTE (120 h, time 5 day) was 83.83%, the “MEAN CORPUSCULAR HEMOGLOBIN” value (120 h, time 5 day) was 21.57 pg and the “MEAN CORPUSCULAR HEMOGLOBIN CONCENTRATION” value (120 h, time 5 day) was 30.77 G/DL. The “MEAN CORPUSCULAR VOLUME” value (120 h, time 5 day) was 70.13 fL, the MONOCYTE (120 h, time 5 day) was 2.1% and the NEUTROPHIL (120 h, time 5 day) was 12.53%. The “PLATELET COUNT” value (120 h, time 5 day) was 1056.67 x10E3/uL, the “ALANINE AMINOTRANSFERASE” value [2] was 41.33 u/L and the ALBUMIN [2] was 4.07 G/DL. The “ALKALINE PHOSPHATASE” value [2] was 603.33 u/L, the “ASPARTATE AMINOTRANSFERASE” value [2] was 80 u/L and the “BLOOD UREA NITROGEN” value [2] was 14.67 mg/dL. The “CARBON DIOXIDE” value [2] was 43 mmol/L, the CHLORIDE [2] was 104 MEQ/L and the CHOLESTEROL [2] was 88.33 mg/dL. For the same compound, the “CREATINE PHOSPHOKINASE” value [2] was 391.67 u/L, the CREATININE [2] was 0.47 mg/dL and the GLUCOSE [2] was 156 mg/dL. It also gave an LIPASE [2] of 10.67 u/L, a PHOSPHORUS [2] of 9.03 mg/dL and a POTASSIUM [2] of 6.1 MEQ/L. The SODIUM [2] was 145.67 MEQ/L, the “TOTAL BILIRUBIN” value [2] was 0.37 mg/dL and the “TOTAL PROTEIN” value [2] was 6.53 G/DL. For the same compound, the “URIC ACID” value [2] was 0.5 mg/dL, the ABSOLUTE BASOPHIL (time 14 day) was 73.3 cells/µL and the ABSOLUTE EOSINOPHIL (time 14 day) was 60 cells/µL. It also gave an ABSOLUTE LYMPHOCYTE (time 14 day) of 12200 cells/µL, an ABSOLUTE MONOCYTE (time 14 day) of 250 cells/µL and a BASOPHIL (time 14 day) of 0.5%. For the same compound, the EOSINOPHIL (time 14 day) was 0.37%, the “ERYTHROCYTE COUNT” value (time 14 day) was 7.33 x10E6/uL and the HEMATOCRIT (time 14 day) was 44.3%. The HEMOGLOBIN (time 14 day) was 14.77 G/DL, the “LEUKOCYTE COUNT” value (time 14 day) was 14.86 x10E3/uL and the LYMPHOCYTE (time 14 day) was 81.87%. The “MEAN CORPUSCULAR HEMOGLOBIN” value (time 14 day) was 20.2 pg, the “MEAN CORPUSCULAR HEMOGLOBIN CONCENTRATION” value (time 14 day) was 33.33 G/DL and the “MEAN CORPUSCULAR VOLUME” value (time 14 day) was 60.57 fL. For the same compound, the MONOCYTE (time 14 day) was 1.63%, the NEUTROPHIL (time 14 day) was 14.93% and the “PLATELET COUNT” value (time 14 day) was 1101.67 x10E3/uL. The “ALANINE AMINOTRANSFERASE” value (tissue Plasma, time 14 day) was 31.67 u/L, the ALBUMIN (tissue Plasma, time 14 day) was 3.83 G/DL and the “ALKALINE PHOSPHATASE” value (tissue Plasma, time 14 day) was 430.67 u/L. For the same compound, the “ASPARTATE AMINOTRANSFERASE” value (tissue Plasma, time 14 day) was 87 u/L, the “BLOOD UREA NITROGEN” value (tissue Plasma, time 14 day) was 14.33 mg/dL and the “CARBON DIOXIDE” value (tissue Plasma, time 14 day) was 39 mmol/L. For the same compound, the CHLORIDE (tissue Plasma, time 14 day) was 104 MEQ/L, the CHOLESTEROL (tissue Plasma, time 14 day) was 66 mg/dL and the “CREATINE PHOSPHOKINASE” value (tissue Plasma, time 14 day) was 441.67 u/L. The CREATININE (tissue Plasma, time 14 day) was 0.7 mg/dL, the GLUCOSE (tissue Plasma, time 14 day) was 125.67 mg/dL and the “LACTATE DEHYDROGENASE” value (tissue Plasma, time 14 day) was 397.67 u/L. The LIPASE (tissue Plasma, time 14 day) was 12.33 u/L, the PHOSPHORUS (tissue Plasma, time 14 day) was 9.87 mg/dL and the POTASSIUM (tissue Plasma, time 14 day) was 5.93 MEQ/L. For the same compound, the SODIUM (tissue Plasma, time 14 day) was 145 MEQ/L, the “TOTAL BILIRUBIN” value (tissue Plasma, time 14 day) was 0.37 mg/dL and the “TOTAL PROTEIN” value (tissue Plasma, time 14 day) was 6.27 G/DL. The “URIC ACID” value (tissue Plasma, time 14 day) was 0.67 mg/dL.

Reference: ChEMBL document CHEMBL3885881, “DrugMatrix”
